Test results reported in US20230203060A1 (GENFLEET THERAPEUTICS (SHANGHAI) INC., priority 2020, published 2023).
Counter-ions that a name gives are not always drawn.

Experiments:
[1] = tested on: KRAS G12C mutant NCI-H358 cells; test: Cell proliferation inhibition experiment, 3D spheroid, CellTiter-Glo, NCI-H358; assay type: cell-based, human; settings: Homo sapiens, NCI-H358, 120 h, NCI-H358 (KRAS G12C mutant) 3D spheroid, 5 days with compound, CellTiter-Glo; read-out: H358 IC50
In short: (§1)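 CellTiter-Glo luminescence after 5 days' compound treatment (3.16-fold series, 0.1% DMSO) of overnight-formed spheroids in 2% FBS medium: H358 seeded at 800 cells/well in RPMI-1640, A549 at 400 cells/well in F-12K. IC50 derived by four-parameter fit of inhibition normalized to DMSO control and blank.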

[2] = tested on: A549 cells (KRAS G12S mutant); test: Cell proliferation inhibition experiment, 3D spheroid, CellTiter-Glo, A549; assay type: cell-based, human; settings: Homo sapiens, A549, 120 h, A549 (KRAS G12S mutant) 3D spheroid, 5 days with compound, CellTiter-Glo; read-out: A549 IC50
In short: as §1

## C=CC(=O)N1CCN2C(=O)c3c(N4CCN(CCOC)C[C@@H]4C)nc(-c4c(O)cccc4F)c(Cl)c3OC[C@H]2C1 [Z257a, (6aR)-8-acryloyl-4-chloro-3-(2-fluoro-6-hydroxyphenyl)-1-((S)-4-(2-methoxyethyl)-2-methylpiperazin-1-yl)-6,6a,7,8,9,10-hexahydro-12H-pyrazino[2,1-c]pyrido[3,4-f][1,4]oxazepin-12-one]
[1]
  IC50: 4 nM
[2]
  IC50: 28200 nM

## C=CC(=O)N1CCN2C(=O)c3c(N4CC(=O)N(CC)C[C@@H]4C)nc(-c4c(O)cccc4F)c(Cl)c3OC[C@H]2C1 [Z319-1, (6aR)-8-acryloyl-4-chloro-1-((S)-4-ethyl-2-methyl-5-oxopiperazin-1-yl)-3-(2-fluoro-6-hydroxyphenyl)-6,6a,7,8,9,10-hexahydro-12H-pyrazino[2,1-c]pyrido[3,4-f][1,4]oxazepin-12-one]
[1]
  IC50: 2.3 nM
[2]
  IC50: > 30000 nM

## C=CC(=O)N1CCN2C(=O)c3c(N4CC(C#N)CC4(C)C)nc(-c4c(O)cccc4F)c(Cl)c3OC[C@H]2C1 (stereo partly drawn) [Z275, (6aR)-8-acryloyl-1-(4-cyano-2,2-dimethylpyrrolidin-1-yl)-4-chloro-3-(2-fluoro-6-hydroxyphenyl)-6,6a,7,8,9,10-hexahydro-12H-pyrazino[2,1-c]pyrido[3,4-f][1,4]oxazepin-12-one]
[1]
  IC50: 2.1 nM
[2]
  IC50: 7330 nM

## C=CC(=O)N1CCN2C(=O)c3c(N4CCN(C)C(=O)[C@@H]4C)nc(-c4c(O)cccc4F)c(Cl)c3OC[C@H]2C1 [Z311-1, (6aR)-8-actyloyl-4-chloro-1-((S)-2,4-dimethyl-3-oxopiperazin-1-yl)-3-(2-fluoro-6-hydroxyphenyl)-6,6a,7,8,9,10-hexahydro-12H-pyrazino[2,1-c]pyrido[3,4-f][1,4]oxazepin-12-one]
[1]
  IC50: 10 nM
[2]
  IC50: > 30000 nM

## C=CC(=O)N1CCN2C(=O)c3c(N4CCC(N(C)C)C4(C)C)nc(-c4c(O)cccc4F)c(Cl)c3OC[C@H]2C1 (stereo partly drawn) [Z334, (6aR)-8-acryloyl-4-chloro-1-(3-(dimethylamino)-2,2-dimethylpyrrolidin-1-yl)-3-(2-fluoro-6-hydroxyphenyl)-6,6a,7,8,9,10-hexahydro-12H-pyrazino[2,1-c]pyrido[3,4-f][1,4]oxazepin-12-one]
[1]
  IC50: 9 nM
[2]
  IC50: 8550 nM

## C=CC(=O)N1CCN2C(=O)c3c(N4C[C@H](O)CC4(C)C)nc(-c4ccccc4F)c(Cl)c3OC[C@H]2C1 (single isomer, unassigned) [Z325-2]
[1]
  IC50: 6.1 nM
[2]
  IC50: > 30000 nM

## C=CC(=O)N1CCN2C(=O)c3c(N4CCN(C)C[C@@H]4C)nc(-c4c(F)ccc(Cl)c4O)c(Cl)c3OC[C@H]2C1 [Z342, (6aR)-8-acryloyl-4-chloro-3-(3-chloro-6-fluoro-2-hydroxyphenyl)-1-((S)-2,4-dimethylpiperazin-1-yl)-6,6a,7,8,9,10-hexahydro-12H-pyrazino[2,1-c]pyrido[3,4-f][1,4]oxazepin-12-one]
[1]
  IC50: 9.5 nM
[2]
  IC50: 3060 nM

## C=CC(=O)N1CCN2C(=O)c3c(N4C[C@H](OC)CC4(C)C)nc(-c4c(O)cccc4F)c(F)c3OC[C@H]2C1 (single isomer, unassigned) [Z256a-2]
[1]
  IC50: 1.4 nM
[2]
  IC50: 9270 nM

## C=CC(=O)N1CCN2C(=O)c3c(N4CCC(C)(C)C4)nc(-c4c(O)cccc4F)c(Cl)c3OC[C@H]2C1 [Z21, (6aR)-8-acryloyl-4-chloro-1-(3,3-dimethylpyrrolidin-1-yl)-3-(2-fluoro-6-hydroxyphenyl)-6,6a,7,8,9,10-hexahydro-12H-pyrazino[2,1-c]pyrido[3,4-f][1,4]oxazepin-12-one]
[1]
  IC50: 29 nM
[2]
  IC50: > 20000 nM

## C=CC(=O)N1CCN2C(=O)c3c(N4CCO[C@](C)(CO)C4)nc(-c4c(O)cccc4F)c(Cl)c3OC[C@H]2C1 (single isomer, unassigned) [Z333-1]
[1]
  IC50: 26 nM
[2]
  IC50: > 30000 nM

## C=CC(=O)N1CCN2C(=O)c3c(N4CCN(CC)C(C)(C)C4)nc(-c4c(O)cccc4F)c(Cl)c3OC[C@H]2C1 [Z322, (6aR)-8-actyloyl-4-chloro-3-(2-fluoro-6-hydroxyphenyl)-1-(4-ethyl-3,3-dimethylpiperazin-1-yl)-6,6a,7,8,9,10-hexahydro-12H-pyrazino[2,1-c]pyrido[3,4-f][1,4]oxazepin-12-one]
[1]
  IC50: 4.5 nM
[2]
  IC50: 10700 nM

## C=CC(=O)N1CCN2C(=O)c3c(N4C[C@@](C)(O)CC4(C)C)nc(-c4c(O)cccc4F)c(F)c3OC[C@H]2C1 (single isomer, unassigned) [Z256b-1]
[1]
  IC50: 2.8 nM
[2]
  IC50: 10200 nM

## C=CC(=O)N1CCN2C(=O)c3c(N4C[C@@H](OC)CC4(C)C)nc(-c4c(O)cccc4F)c(F)c3OC[C@H]2C1 (single isomer, unassigned) [Z256a-1]
[1]
  IC50: 3.4 nM
[2]
  IC50: 9160 nM

## C=CC(=O)N1CCN2C(=O)c3c(N4CCN(C)C5(CC5)C4)nc(-c4c(O)cccc4F)c(Cl)c3OC[C@H]2C1 [Z83, (6aR)-8-acryloyl-4-chloro-3-(2-fluoro-6-hydroxyphenyl)-1-(4-methyl-4,7-diazaspiro[2 .5]octan-7-yl)-6,6a,7,8,9,10-hexahydro-12H-pyrazino[2,1-c]pyrido[3,4-f][1,4]oxazepin-12 (6aH)-one]
[1]
  IC50: 18 nM
[2]
  IC50: > 10000 nM

## C=CC(=O)N1CCN2C(=O)c3c(N4CC[C@@H](OC)C4(C)C)nc(-c4c(O)cccc4F)c(Cl)c3OC[C@H]2C1 (single isomer, unassigned) [Z241a-2]
[1]
  IC50: 0.7 nM
[2]
  IC50: 3040 nM

## C=CC(=O)N1CCN2C(=O)c3c(N4C[C@@H](O)CC4(C)C)nc(-c4c(F)ccc(F)c4O)c(F)c3OC[C@H]2C1 (single isomer, unassigned) [Z449-1]
[1]
  IC50: 7 nM
[2]
  IC50: > 30000 nM

## C=CC(=O)N1CCN2C(=O)c3c(N4CC[C@@H](OC)[C@@H]4C)nc(-c4c(O)cccc4F)c(Cl)c3OC[C@H]2C1 [Z338-1, (6aR)-8-acryloyl-4-chloro-3-(2-fluoro-6-hydroxyphenyl)-1-((2S,3R)-3-methoxy-2-methylpyrrolidin-1-yl)-6,6a,7,8,9,10-hexahydro-12H-pyrazino[2,1-c]pyrido[3,4-f][1,4]oxazepin-12-one]
[1]
  IC50: 6 nM
[2]
  IC50: 12300 nM

## C=CC(=O)N1CCN2C(=O)c3c(N4CCOCC4)nc(-c4nc(N)cc(C)c4C(F)(F)F)c(Cl)c3OC[C@H]2C1 [Z314]
[1]
  IC50: 6 nM
[2]
  IC50: > 30000 nM

## C=CC(=O)N1CCN2C(=O)c3c(N4CC(N5CCOCC5)CC4(C)C)nc(-c4c(O)cccc4F)c(Cl)c3OC[C@H]2C1 (stereo partly drawn) [Z344, (6aR)-8-acryloyl-4-chloro-1-((2,2-dimethyl-4-morpholinopyrrolidin-1-yl))-3-(2-fluoro-6-hydroxyphenyl)-6,6a,7,8,9,10-hexahydro-12H-pyrazino[2,1-c]pyrido[3,4-f][1,4]oxazepin-12-one]
[1]
  IC50: 1.3 nM
[2]
  IC50: 3720 nM

## C=CC(=O)N1CCN2C(=O)c3c(N4Cc5cn(C)nc5[C@H]4C)nc(-c4c(O)cccc4F)c(Cl)c3OC[C@H]2C1 (single isomer, unassigned) [Z291-1S, trifluoroacetate]
[1]
  IC50: 18.4 nM
[2]
  IC50: 9220 nM

## C=CC(=O)N1CCN2C(=O)c3c(N4CC(C#N)CC4(C)C)nc(-c4c(O)cccc4F)c(F)c3OC[C@H]2C1 (stereo partly drawn) [Z335]
[1]
  IC50: 11 nM
[2]
  IC50: > 30000 nM

## C=CC(=O)N1CCN2C(=O)c3c(N4C[C@H](N(C)C)CC4(C)C)nc(-c4c(O)cccc4F)c(Cl)c3OC[C@H]2C1 (single isomer, unassigned) [Z324-2]
[1]
  IC50: 4.4 nM
[2]
  IC50: 4650 nM

## C=CC(=O)N1CCN2C(=O)c3c(N4CC[C@H](OC)C4(C)C)nc(-c4c(O)cccc4F)c(Cl)c3OC[C@H]2C1 (single isomer, unassigned) [Z241a-1]
[1]
  IC50: 1.4 nM
[2]
  IC50: 9550 nM

## C=CC(=O)N1CCN2C(=O)c3c(N4CCN(C)C[C@@H]4C)nc(-c4c(F)ccc(F)c4O)c(Cl)c3OC[C@H]2C1 [Z356, (6aR)-8-acryloyl-4-chloro-3-(3,6-difluoro-2-hydroxyphenyl)-1-((S)-2,4-dimethylpiperazin-1-yl)-6,6a,7,8,9,10-hexahydro-12H-pyrazino[2,1-c]pyrido[3,4-f][1,4]oxazepin-12-one]
[1]
  IC50: 20 nM
[2]
  IC50: 28300 nM

## C=CC(=O)N1CCN2C(=O)c3c(N4Cc5cn(C)nc5C4C)nc(-c4c(O)cccc4F)c(Cl)c3OC[C@H]2C1 (stereo partly drawn) [Z291-2]
[1]
  IC50: 3.5 nM
[2]
  IC50: 9690 nM

## C=CC(=O)N1CCN2C(=O)c3c(N4C[C@@H](N(C)C)CC4(C)C)nc(-c4c(O)cccc4F)c(Cl)c3OC[C@H]2C1 (single isomer, unassigned) [Z324-1]
[1]
  IC50: 1.3 nM
[2]
  IC50: 2850 nM

## C=CC(=O)N1CCN2C(=O)c3c(N4C[C@H](O)CC4(C)C)nc(-c4c(O)ccc(Cl)c4F)c(F)c3OC[C@H]2C1 (single isomer, unassigned) [Z340-2]
[1]
  IC50: 26.7 nM
[2]
  IC50: 3170 nM

## C=CC(=O)N1CCN2C(=O)c3c(N4CCN(C)C[C@@H]4C)nc(-c4c(O)ccc(Cl)c4F)c(Cl)c3OC[C@H]2C1 [Z343, (6aR)-8-acryloyl-4-chloro-3-(3-chloro-2-fluoro-6-hydroxyphenyl)-1-((S)-2,4-dimethylpiperazin-1-yl)-6,6a,7,8,9,10-hexahydro-12H-pyrazino[2,1-c]pyrido[3,4-f][1,4]oxazepin-12-one]
[1]
  IC50: 10.4 nM
[2]
  IC50: 6800 nM

## C=CC(=O)N1CCN2C(=O)c3c(N4C[C@H](CO)CC4(C)C)nc(-c4c(O)cccc4F)c(Cl)c3OC[C@H]2C1 (single isomer, unassigned) [Z240-2]
[1]
  IC50: 1.9 nM
[2]
  IC50: > 10000 nM

## C=CC(=O)N1CCN2C(=O)c3c(N4CCN(C(C)=O)C[C@@H]4C)nc(-c4c(O)cccc4F)c(Cl)c3OC[C@H]2C1 [Z313-1]
[1]
  IC50: 1.6 nM
[2]
  IC50: > 30000 nM
